Laboratory results from publication PMC13489962, “Small-molecule modulation of β-arrestins” (Nature, 2026).

What was measured:
βARR1 P133A = target: T1, βARR1 P133A (Rattus norvegicus, UniProt P29066, P133A); assay: ITC binding to βARR1 mutant P133A; conditions: 25 °C
T1 construct: βARR1 or βARR2 construct, with their C terminus truncated (at amino acid 393 or 394, respectively); GST (pGEX4T1) (N, cleaved yes); made in house; host or cells: E. coli BL21 (DE3) pLysS
Procedure: (§1) The expression and purification of β-arrestins have been described previously[44],[62]–[64]. In brief, E. coli BL21 (DE3) pLysS cells (New England Biolabs: C2527I) carrying pGEX4T1-Rattus norvegicus βARR1 or βARR2 construct, with their C terminus truncated (at amino acid 393 or 394, respectively), were cultured in Terrific Broth (Teknova) medium at 37 °C. After OD600 reached 0.6–0.8, the cells were induced with 0.1 mM isopropyl-β-D-thiogalactopyranoside (IPTG) at 18 °C overnight. Bacteria were collected by centrifugation (4,000 rpm), and cell pellets were resuspended in lysis buffer (20 mM HEPES, pH 8, 150 mM NaCl, 10% glycerol, 1 mM EDTA, 0.2 mM dithiothreitol (DTT), 1 mM phenylmethylsulfonyl fluoride, and 1 mM benzamidine) at 4 °C for 1 h. […] Eluted fractions were analysed by SDS–PAGE, pooled, concentrated using 30 kDa MWCO Amicon Ultra-15 Centrifugal Filter devices, flash-frozen in liquid nitrogen, and stored in aliquots at −80 °C. […] Protein concentrations for each protein were determined by ultraviolet absorption at 280 nm and extinction coefficients estimated using the ExPASy ProtParam tool[67].
(§2) ITC measurements were performed on a MicroCal iTC200 system at 25 °C. […] Protein concentrations were determined by spectrophotometry at 280 nm, using extinction coefficients calculated from each protein sequence via the ProtParam program. […]

βARR1 E134A = target: T2, βARR1 E134A (Rattus norvegicus, UniProt P29066, E134A); assay: ITC binding to βARR1 mutant E134A; conditions: 25 °C
T2 construct: βARR1 or βARR2 construct, with their C terminus truncated (at amino acid 393 or 394, respectively); GST (pGEX4T1) (N, cleaved yes); made in house; host or cells: E. coli BL21 (DE3) pLysS
T2 sequence (P29066 1-393 E134A): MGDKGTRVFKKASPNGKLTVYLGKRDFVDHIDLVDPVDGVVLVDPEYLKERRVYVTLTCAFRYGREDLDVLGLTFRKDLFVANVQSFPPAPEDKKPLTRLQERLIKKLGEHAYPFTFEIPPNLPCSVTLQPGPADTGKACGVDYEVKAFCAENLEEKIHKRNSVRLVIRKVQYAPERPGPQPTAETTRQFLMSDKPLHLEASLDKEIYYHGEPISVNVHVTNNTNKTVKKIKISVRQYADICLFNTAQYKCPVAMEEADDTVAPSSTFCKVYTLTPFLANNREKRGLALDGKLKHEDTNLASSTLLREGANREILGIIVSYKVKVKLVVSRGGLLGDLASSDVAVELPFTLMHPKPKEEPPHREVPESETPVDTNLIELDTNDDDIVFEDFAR
Procedure: as §1, §2

βARR1 Y249A = target: T3, βARR1 Y249A (Rattus norvegicus, UniProt P29066, Y249A); assay: ITC binding to βARR1 mutant Y249A
T3 construct: βARR1 or βARR2 construct, with their C terminus truncated (at amino acid 393 or 394, respectively); GST (pGEX4T1) (N, cleaved yes); made in house; host or cells: E. coli BL21 (DE3) pLysS
T3 sequence (P29066 1-393 Y249A): as the sequence (P29066 1-393 E134A) above, with A134E, Y249A counted along it
Procedure: as §1, §2

βARR1 C251A = target: T4, βARR1 C251A (Rattus norvegicus, UniProt P29066, C251A); assay: ITC binding to βARR1 mutant C251A
T4 construct: βARR1 or βARR2 construct, with their C terminus truncated (at amino acid 393 or 394, respectively); GST (pGEX4T1) (N, cleaved yes); made in house; host or cells: E. coli BL21 (DE3) pLysS
T4 sequence (P29066 1-393 C251A): as the sequence (P29066 1-393 E134A) above, with A134E, C251A counted along it
Procedure: as §1, §2

[1] = system: βARR1 MCL site mutants coupling to pβ2V2R; assay: [3H]-Fen binding with βARR1 MCL site mutants; type: biochemical, Rattus norvegicus; conditions: mutations P131A, D135A, K138A, C140A and E283A
Procedure: as §1, with “overnight.” for “overnight. Bacteria were collected by centrifugation (4,000 rpm), and cell pellets were resuspended in lysis buffer (20 mM HEPES, pH 8, 150 mM NaCl, 10% glycerol, 1 mM EDTA, 0.2 mM dithiothreitol (DTT), 1 mM phenylmethylsulfonyl fluoride, and 1 mM benzamidine) at 4 °C for 1 h.”
To assess the effects of β-arrestin modulators on β-arrestin- or Gαs–βγ-promoted high-affinity agonist binding, [^3H]-Fen binding assays were performed using membranes from Sf9 cells expressing phosphorylated β2V2R (pβ2V2R) or β2AR[28]. […] Bound [^3H]-Fen was extracted overnight in scintillation fluid and quantified by scintillation counting. Specific binding was calculated by subtracting nonspecific from total binding.

β-arrestin = assay: Functional assays (not specified); conditions: peer review reply

T1 sequence (P29066 1-393 P133A): as the sequence (P29066 1-393 E134A) above, with P133A, A134E counted along it

C=C1C(=O)[C@]23[C@H](O)[C@H]1CC[C@H]2[C@@]12CO[C@]3(O)[C@@H](O)[C@@H]1C(C)(C)CC[C@@H]2O [Cmpd-5, (1S,4aR,5S,6S,6aR,9S,11aS,11bS,14R)-1,5,6,14-tetrahydroxy−4,4-dimethyl-8-methylenedecahydro-1H-6,11b-(epoxymethano)-6a,9-methanocyclohepta[a]naphthalen-7(8H)-one]
Kd (βARR1 P133A): 1000 ± 400 nM
Kd (βARR1 E134A): 2200 ± 500 nM
ΔH, βARR1 E134A (βARR1 E134A): -1.2 kcal/mol
Kd fold over WT, βARR1 Y249A (βARR1 Y249A): 10.6 fold
Kd (βARR1 Y249A; 25 °C): 3800 ± 900 nM
Kd fold over WT, βARR1 C251A (βARR1 C251A): 8.3 fold
Kd (βARR1 C251A; 25 °C): 3000 ± 1000 nM
effect of mutation on Cmpd-5 inhibition of βARR1 coupling [1]: negligible effects
binding affinity from functional assays (β-arrestin): 2 to 10 µM
